This passage reports IC50 and inhibition results from ChEMBL document CHEMBL4190179 (Medchemcomm, 2016).

System in the first test: not listed separately
Briefly: (§1) Inhibition of PMA-stimulated Il-17A production in mouse Th17 cells by live/dead fixable dead cell staining based flow cytometric analysis. The test is classed as functional.
Consider `O=C(Nc1ccc(-c2cc(OC(F)(F)F)ccc2Cl)cc1)c1c(F)cccc1F`, for which the IC50 came to 13 nM. This lies in the double-digit nanomolar range.

The species entered for another test is Mus musculus. Described as §1. The test is classed as functional.
Consider `O=C(Nc1ccc(-c2cc(OC(F)(F)F)ccc2Cl)cc1)c1c(F)cccc1F`, for which the inhibition result is “Dose-dependent effect”.

For a further test, the target named is T1, Nuclear receptor ROR-gamma (Homo sapiens, UniProt P51449).
T1 sequence (P51449 whole entry): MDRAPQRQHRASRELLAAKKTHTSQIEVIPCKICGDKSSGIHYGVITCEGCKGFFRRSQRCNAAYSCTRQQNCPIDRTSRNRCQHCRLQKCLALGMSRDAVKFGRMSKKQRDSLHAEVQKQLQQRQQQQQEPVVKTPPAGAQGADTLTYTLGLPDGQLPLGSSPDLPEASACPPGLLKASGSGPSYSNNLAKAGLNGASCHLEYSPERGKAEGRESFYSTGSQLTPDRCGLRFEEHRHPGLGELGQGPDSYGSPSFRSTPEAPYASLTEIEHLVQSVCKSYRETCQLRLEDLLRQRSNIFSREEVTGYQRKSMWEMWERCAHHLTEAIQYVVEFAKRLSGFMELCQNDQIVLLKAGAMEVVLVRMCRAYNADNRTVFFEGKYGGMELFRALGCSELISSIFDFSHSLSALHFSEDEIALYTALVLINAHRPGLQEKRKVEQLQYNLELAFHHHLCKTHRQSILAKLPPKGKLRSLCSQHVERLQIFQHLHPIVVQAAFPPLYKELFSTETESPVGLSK
Briefly: Inverse agonist activity at RORgammat (unknown origin) by FRET assay.
`O=C(Nc1ccc(-c2cc(OC(F)(F)F)ccc2Cl)cc1)c1c(F)cccc1F` displayed an IC50 of more than 50000 nM.

System in another test: not listed separately
The experiment in a line: Inhibition of PMA-stimulated Il-17A production in mouse Th17 cells at 0.3 uM by live/dead fixable dead cell staining based flow cytometric analysis relative to control. The test is classed as functional. (A flow cytometer gives signals particle by particle.)
With `COc1ccc(Cl)c(-c2cccc(NC(=O)c3c(F)cccc3F)c2)c1`, the inhibition at 0.3 µM amounted to 12%. For `COc1ccc(Cl)c(-c2ccc(NC(=O)c3c(F)cccc3Cl)cc2)c1`, the inhibition at 0.3 µM was 64%. The same measure, in the same setting: the value for `COc1ccc(Cl)c(-c2ccc(NC(=O)C(C)C)cc2)c1` was 22%; that for `Cc1ccc(-c2ccc(NC(=O)c3c(F)cccc3F)cc2)cn1` was 4%; that for `COCC(=O)Nc1ccc(-c2cc(OC)ccc2Cl)cc1` was 1%.

For the compound `COc1ccc(Cl)c(-c2ccc(NC(=O)C3CCCCC3)cc2)c1`, the inhibition at 0.3 µM stood at 26%. Same read-out and setting: the value for `O=C(Nc1ccc(-c2cc(OC(F)(F)F)ccc2Cl)cc1)c1c(F)cccc1F` was 97%; that for `O=C(Nc1ccc(-c2cccnc2)cc1)c1c(F)cccc1F` was 17%; that for `Cc1ccccc1-c1ccc(NC(=O)c2c(F)cccc2F)cc1` was 60%. Take `COc1ccc(Cl)c(-c2ccc(NC(=O)CC3CC3)cc2)c1`: the inhibition at 0.3 µM worked out at 9%.

For the compound `COc1ccc(Cl)c(-c2ccc(NC(=O)c3c(F)cccc3F)cn2)c1`, the inhibition at 0.3 µM is 29%. The same measure, in the same setting: the result for `COc1ccc(Cl)c(-c2ccc(NC(=O)Cc3ccccc3)cc2)c1` reads 33%; that for `O=C(Nc1ccc(-c2ccccc2)cc1)c1c(F)cccc1F`, 45%; that for `COc1ccc(Cl)c(-c2ccc(NC(=O)c3c(F)cccc3F)cc2Cl)c1`, 75%.

For `COc1ccc(Cl)c(-c2ccc(NC(C)=O)cc2)c1`, the inhibition at 0.3 µM turned out to be 11%. On to `O=C(Nc1ccc(-c2ccccc2Cl)cc1)c1c(F)cccc1F`, for which the inhibition at 0.3 µM is 48%. Same read-out and setting: the result for `COc1ccc(Cl)c(-c2ccc(NC(=O)CC3CCOCC3)cc2)c1` reads 8%.

Regarding `Cn1cc(-c2ccc(NC(=O)c3c(F)cccc3F)cc2)cn1`, the inhibition at 0.3 µM was -7%. In the case of `COc1ccc(Cl)c(-c2ccc(NC(=O)c3ccccc3C(F)(F)F)cc2)c1`, the inhibition at 0.3 µM is 25%.

For the compound `COc1ccc(Cl)c(-c2ccc(NC(=O)CCc3ccccc3)cc2)c1`, the inhibition at 0.3 µM came to 24%. `COc1ccc(Cl)c(-c2ccc(NC(=O)c3c(F)cccc3F)cc2F)c1`: the inhibition at 0.3 µM came to 82%. The same measure, in the same setting: the result for `COc1ccc(Cl)c(-c2ccc(NC(=O)C3CCCC3)cc2)c1` reads 34%. In the case of `COc1ccc(Cl)c(-c2ccc(NC(=O)Cc3ccccc3F)cc2)c1`, the inhibition at 0.3 µM was determined as 19%. Regarding `COc1ccc(C)c(-c2ccc(NC(=O)c3c(F)cccc3F)cc2)c1`, the inhibition at 0.3 µM is 93%. Same read-out and setting: the result for `COc1ccc(Cl)c(-c2ccc(NC(=O)C3CCN(C)CC3)cc2)c1` reads 16%; that for `COc1ccc(Cl)c(-c2ccc(NC(=O)c3ccccc3F)cc2)c1`, 43%. Same read-out and setting: the value for `COc1ccc(Cl)c(-c2ccc(NC(=O)C3CCOCC3)cc2)c1` was 35%. Take `O=C(O)c1ccc(Cl)c(-c2ccc(NC(=O)c3c(F)cccc3F)cc2)c1`: the inhibition at 0.3 µM is 7%. The same measure, in the same setting: the result for `COc1ccc(Cl)c(-c2ccc(NC(=O)C3CCCO3)cc2)c1` (configuration not stated) reads 30%. `COc1ccc(Cl)c(-c2ccc(NC(=O)c3ccccc3)cc2)c1`: the inhibition at 0.3 µM was determined as 35%. On the same count and under the same terms, the result for `COc1ccc(Cl)c(-c2ccc(NC(=O)c3c(F)cccc3F)cc2)c1` reads 71%; that for `COc1ccc(Cl)c(-c2ccc(NC(=O)c3ncccc3F)cc2)c1`, 22%. Still for that read-out and setting: the result for `COc1ccc(Cl)c(-c2ccc(NC(=O)c3ccccc3Cl)cc2)c1` reads 39%.

In the case of `COc1ccc(Cl)c(-c2ccc(NC(=O)C3CC3)cc2)c1`, the inhibition at 0.3 µM is 35%.

In general, IC50 refers to the concentration that gives 50% inhibition. A higher IC50 goes with weaker potency in that assay. Usually inhibition stands for the change of the read-out against control, counted positive when it falls.
